Patent US20150126516A1, “PIPERIDINE COMPOUND AND ITS USE IN PEST CONTROL” (Sumitomo Chemical Company, Limited, priority 2012, published 2015)
Where two headings read alike, the source gives them in different places.

What was measured:
cotton aphids = assay: Controlling effect on cotton aphid, spray on inoculated cucumber seedlings; assay type: in vivo, Aphis gossypii; conditions: 144 h; 500 ppm active ingredient, 20 ml sprayed on cucumber seedlings with about 30 cotton aphids, 6 days after spraying
diamondback moths = assay: Controlling effect on diamondback moth, spray on cabbages; assay type: in vivo; conditions: Plutella xylostella, 120 h, read-out: Mortality rate
Procedure: (§1) Spray solutions for a test were prepared by diluting each formulation of the compounds 1, 11 to 14, 16, 17, 36, and 38 of the present invention, which were obtained from Formulation Example 5, with water so that the concentration of the active ingredients becomes 500 ppm.
Meanwhile, each of the above-described liquid solutions for the test was sprayed on cabbages in a third-leaf stage which were planted in polyethylene cups at a ratio of 20 mL/cup. After the liquid solutions were dried, the stems and leaves were cut and accommodated in each 50 mL cup. 5 second-instar larvae of diamondback moths were released in each cup, which was then covered with a lid. The cups were stored at 25° C., the number of surviving insects was counted after 5 days, and the mortality rate was obtained using the following formula.
(§2) Mortality(%)=(the number of dead insects/the number of insects provided for a test)×100

[1] = tested on: summer fruit tortrix moths (Adoxophyes orana); assay: Controlling effect on summer fruit tortrix moth, treated artificial feed; assay type: in vivo; conditions: 168 h
Procedure: as §1, with “Liquid medicines” for “Spray solutions”, “3, 6, 10, 12,” for “11 to 14,”, “20, 21, 23, 26 to 29, 33, 38,” for “36,”, “42” for “38”
Silk Mates 2S (artificial feed: Nosan Corporation), which were sliced in a thickness of 2 mm, were placed on the bottom of polyethylene cups and 1 mL of each of the above-described liquid medicines for a test was irrigated thereto.
After air-drying, 30 first-instar larvae of summer fruit tortrix moths (Adoxophyes orana) were released in each cup, which was then covered with a lid. The cups were stored at 25° C., the number of surviving insects was counted after 7 days, and the mortality rate was obtained using the following formula.
as §2

common houseflies = assay: Controlling effect on common housefly, treated filter paper with sucrose bait; assay type: in vivo; conditions: Musca domestica, 24 h, read-out: Mortality rate
Procedure: Liquid medicines for a test were prepared by diluting a formulation of the compound 28 of the present invention, which was obtained from Formulation Example 5, with water so that the concentration of the active ingredients becomes 500 ppm.
A filter paper having a diameter of 5.5 cm was spread on the bottom of a polyethylene cup having the same size as that of the filter paper, 0.7 ml ml of any one of the above-described liquid medicines for a test was added dropwise onto the filter paper, and 30 mg of sucrose was uniformly put therein as bait. 10 female imagoes of common houseflies were released in the polyethylene cup, which was then covered with a lid. The number of live and dead common houseflies were checked after 24 hours and the mortality rate was obtained using the following formula.
Mortality(%)=(the number of dead insectse/the number of insects provided for a test)×100

[2] = 500 ppm, 20 mL/cup sprayed on cabbages, 5 second-instar larvae, 25° C., after 5 days
[3] = 500 ppm, 1 mL on artificial feed, 30 first-instar larvae, 25° C., after 7 days, read-out: Mortality

SMILES	pest or weed control at 500 ppm (cotton aphids) [%]	mortality at 500 ppm [1] [%]	further results
O=C(NCC1(c2ccccc2Cl)CCN(CCc2ccccc2C(F)(F)F)CC1)c1ccccc1Cl [compound 25, 2-chloro-N-((4-(2-chlorophenyl)-1-(2-(trifluoromethyl)phenethyl)piperidin-4-yl)methyl)benzamide]	≥ 90		
O=C(NCC1(c2ccccc2)CCN(CCc2ccccc2C(F)(F)F)CC1)c1cccc(Cl)c1 [compound 13, 3-chloro-N-((4-phenyl-1-(2-(trifluoromethyl)phenethyl)piperidin-4-yl)methyl)benzamide]			mortality at 500 ppm (diamondback moths; [2]): ≥ 80%
O=C(NCC1(c2ccccc2)CCN(CCc2ccccc2C(F)(F)F)CC1)c1ccnc(Cl)c1 [compound 3, 2-chloro-N-((4-phenyl-1-(2-(trifluoromethyl)phenethyl)piperidin-4-yl)methyl)isonicotinamide]	≥ 90	≥ 90	
O=C(NCC1(c2ccccc2)CCN(CCc2ccccc2Cl)CC1)c1cc(Cl)nc(Cl)c1 [compound 29, 2,6-dichloro-N-((1-(2-chlorophenethyl)-4-phenylpiperidin-4-yl)methyl)isonicotinamide]	≥ 90	≥ 90	
O=C(NCC1(c2ccccc2)CCN(CCc2ccccc2)CC1)c1ccnc(Cl)c1 [compound 2, 2-chloro-N-((1-phenethyl-4-phenylpiperidin-4-yl)methyl)isonicotinamide]	≥ 90		
COc1ccccc1C(=O)NCC1(c2ccccc2)CCN(CCc2ccccc2C(F)(F)F)CC1 [compound 28, 2-methoxy-N-((4-phenyl-1-(2-(trifluoromethyl)phenethyl)piperidin-4-yl)methyl)benzamide]	≥ 90	≥ 90	mortality at 500 ppm (common houseflies): ≥ 70%
O=C(NCC1(c2ccccc2)CCN(CCc2ccccc2C(F)(F)F)CC1)c1ncccc1Cl [compound 21, 3-chloro-N-((4-phenyl-1-(2-(trifluoromethyl)phenethyl)piperidin-4-yl)methyl)picolinamide]	≥ 90	≥ 90	
O=C(NCC1(c2ccccn2)CCN(CCc2ccccc2C(F)(F)F)CC1)c1cc(Cl)nc(Cl)c1 [compound 38, 2,6-dichloro-N-((4-(pyridin-2-yl)-1-(2-(trifluoromethyl)phenethyl)piperidin-4-yl)methyl)isonicotinamide]	≥ 90	≥ 90	mortality at 500 ppm (diamondback moths): ≥ 80%
O=C(NCC1(c2ccccc2)CCN(CCc2cccc(Cl)c2Cl)CC1)c1cc(Cl)nc(Cl)c1 [compound 33, 2,6-dichloro-N-((1-(2,3-dichlorophenethyl)-4-phenylpiperidin-4-yl)methyl)isonicotinamide]			mortality at 500 ppm [1, 3]: ≥ 90%
Cc1ccccc1CCN1CCC(CNC(=O)c2cc(Cl)nc(Cl)c2)(c2ccccc2)CC1 [compound 27, 2,6-dichloro-N-((1-(2-methylphenethyl)-4-phenylpiperidin-4-yl)methyl)isonicotinamide]	≥ 90	≥ 90	
O=C(NCC1(c2ccccc2)CCN(CCc2ccccc2C(F)(F)F)CC1)c1cccnc1Cl [compound 24, 2-chloro-N-((4-phenyl-1-(2-(trifluoromethyl)phenethyl)piperidin-4-yl)methyl)nicotinamide]	≥ 90		
O=C(NCC1(c2ccccc2)CCN(CCc2ccccc2C(F)(F)F)CC1)c1ccccc1 [compound 11, N-((4-phenyl-1-(2-(trifluoromethyl)phenethyl)piperidin-4-yl)methyl)benzamide]	≥ 90		mortality at 500 ppm (diamondback moths): ≥ 80%
O=C(NCC1(c2ccccc2)CCN(CCc2ccccc2C(F)(F)F)CC1)c1cc(Cl)nc(Cl)c1 [compound 1, 2,6-dichloro-N-((4-phenyl-1-(2-(trifluoromethyl)phenethyl)piperidin-4-yl)methyl)isonicotinamide]		≥ 90	mortality at 500 ppm (diamondback moths): ≥ 80%
O=C(NCC1(c2ccccn2)CCN(CCc2ccccc2C(F)(F)F)CC1)c1ccccc1Cl [compound 41, 2-chloro-N-((4-(pyridin-2-yl)-1-(2-(trifluoromethyl)phenethyl)piperidin-4-yl)methyl)benzamide]	≥ 90		
O=C(NCC1(c2ccccc2)CCN(CCc2ccc(C(F)(F)F)cc2)CC1)c1ccnc(Cl)c1 [compound 10, 2-chloro-N-((4-phenyl-1-(4-(trifluoromethyl)phenethyl)piperidin-4-yl)methyl)isonicotinamide]			mortality at 500 ppm [1, 3]: ≥ 90%
O=C(NCC1(c2ccccc2)CCN(CCc2ccccc2)CC1)c1ccc(Cl)cc1 [compound 6, 4-chloro-N-((1-phenethyl-4-phenylpiperidin-4-yl)methyl)benzamide]			mortality at 500 ppm [1, 3]: ≥ 90%
COc1ccccc1CCN1CCC(CNC(=O)c2cc(Cl)nc(Cl)c2)(c2ccccc2)CC1 [compound 26, 2,6-dichloro-N-((1-(2-methoxyphenethyl)-4-phenylpiperidin-4-yl)methyl)isonicotinamide]	≥ 90	≥ 90	
O=C(NCC1(c2ccccc2)CCN(CCc2ccccc2)CC1)c1cc(Cl)nc(Cl)c1 [compound 20, 2,6-dichloro-N-((1-phenethyl-4-phenylpiperidin-4-yl)methyl)isonicotinamide]	≥ 90	≥ 90	
O=C(NCC1(c2ncccc2F)CCN(CCc2ccccc2C(F)(F)F)CC1)c1ccnc(Cl)c1 [compound 40, 2-chloro-N-((4-(3-fluoropyridin-2-yl)-1-(2-(trifluoromethyl)phenethyl)piperidin-4-yl)methyl)isonicotinamide]	≥ 90		
COc1ccccc1C(=O)NCC1(c2ccccn2)CCN(CCc2ccccc2C(F)(F)F)CC1 [compound 42, 2-methoxy-N-((4-(pyridin-2-yl)-1-(2-(trifluoromethyl)phenethyl)piperidin-4-yl)methyl)benzamide]	≥ 90	≥ 90	
O=C(NCC1(c2ccccc2)CCN(CCc2ccccc2C(F)(F)F)CC1)c1ccc(Cl)cc1 [compound 14, 4-chloro-N-((4-phenyl-1-(2-(trifluoromethyl)phenethyl)piperidin-4-yl)methyl)benzamide]			mortality at 500 ppm (diamondback moths; [2]): ≥ 80%
O=C(NCC1(c2cccc(Cl)c2)CCN(CCc2ccccc2C(F)(F)F)CC1)c1ccccc1Cl [compound 23, 2-chloro-N-((4-(3-chlorophenyl)-1-(2-(trifluoromethyl)phenethyl)piperidin-4-yl)methyl)benzamide]			mortality at 500 ppm [1, 3]: ≥ 90%
O=C(NCC1(c2ccccc2)CCN(CCc2ccccc2C(F)(F)F)CC1)c1cc(Cl)cc(Cl)c1 [compound 17, 3,5-dichloro-N-((4-phenyl-1-(2-(trifluoromethyl)phenethyl)piperidin-4-yl)methyl)benzamide]			mortality at 500 ppm (diamondback moths; [2]): ≥ 80%; mortality at 500 ppm [1, 3]: ≥ 90%
O=C(NCC1(c2cccnc2)CCN(CCc2ccccc2C(F)(F)F)CC1)c1cc(Cl)nc(Cl)c1 [compound 39, 2,6-dichloro-N-((4-(pyridin-3-yl)-1-(2-(trifluoromethyl)phenethyl)piperidin-4-yl)methyl)isonicotinamide]	≥ 90		
O=C(NCC1(c2ccccc2)CCN(CCc2ccccc2C(F)(F)F)CC1)c1c(F)cc(F)cc1F [compound 36, 2,4,6-trifluoro-N-((4-phenyl-1-(2-(trifluoromethyl)phenethyl)piperidin-4-yl)methyl)benzamide]	≥ 90		mortality at 500 ppm (diamondback moths): ≥ 80%
O=C(NCC1(c2ccccc2)CCN(CCc2ccccc2C(F)(F)F)CC1)c1ccccn1 [compound 16, N-((4-phenyl-1-(2-(trifluoromethyl)phenethyl)piperidin-4-yl)methyl)picolinamide]	≥ 90	≥ 90	mortality at 500 ppm (diamondback moths): ≥ 80%
O=C(NCC1(c2ccccc2)CCN(CCc2ccccc2C(F)(F)F)CC1)c1ccccc1Cl [compound 12, 2-chloro-N-((4-phenyl-1-(2-(trifluoromethyl)phenethyl)piperidin-4-yl)methyl)benzamide]	≥ 90	≥ 90	mortality at 500 ppm (diamondback moths): ≥ 80%
